Reference: the supplement of paper PMC10307832

Assays:
Assay in all cases: relative viability (nuclei count vs DMSO), 5 days (fraction); higher = more cells survive
HARA = tested on: HARA
How it was run: (§1)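 Lung cancer cell lines in 1536-well plates were dosed by pin tool the day after seeding, either with one drug alone or with a fixed anchor-drug dose plus five library-drug doses (not always all listed) in √10 steps. After 5 days, cells were fixed and their nuclei stained in one step (final 0.05% Triton X-100, 1% formaldehyde, 1 ug/ml Hoechst), then counted on 4× images. Relative viability is the nuclei count in treated wells divided by that in vehicle wells. Values are medians of duplicate plates.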

LC-2-ad = tested on: LC-2-ad
How it was run: as §1

NCI-H522 = tested on: NCI-H522
How it was run: as §1

LXF-289 = tested on: LXF-289
How it was run: as §1

PC-14 = tested on: PC-14
How it was run: as §1

HCC-366 = tested on: HCC-366
How it was run: as §1

NCI-H2126 = tested on: NCI-H2126
How it was run: as §1

HCC-15 = tested on: HCC-15
How it was run: as §1

NCI-H2009 = tested on: NCI-H2009
How it was run: as §1

COR-L23 = tested on: COR-L23
How it was run: as §1

HCC-44 = tested on: HCC-44
How it was run: as §1

HCC-827 = tested on: HCC-827
How it was run: as §1

LU99A = tested on: LU99A
How it was run: as §1

NCI-H2087 = tested on: NCI-H2087
How it was run: as §1

BEN = tested on: BEN
How it was run: as §1

CAL-12T = tested on: CAL-12T
How it was run: as §1

NCI-H727 = tested on: NCI-H727
How it was run: as §1

HOP-62 = tested on: HOP-62
How it was run: as §1

SK-MES-1 = tested on: SK-MES-1
How it was run: as §1

PC-3 [JPC-3] = tested on: PC-3 [JPC-3]
How it was run: as §1

NCI-H1993 = tested on: NCI-H1993
How it was run: as §1

COR-L 105 = tested on: COR-L 105
How it was run: as §1

NCI-H2170 = tested on: NCI-H2170
How it was run: as §1

LCLC-97TM1 = tested on: LCLC-97TM1
How it was run: as §1

CCCCCCCCCCCC1=C(O)C(=O)C=C(O)C1=O [Embelin] + Cc1cc(Nc2cc(N3CCN(C)CC3)nc(Sc3ccc(NC(=O)C4CC4)cc3)n2)n[nH]1 [Tozasertib] (partner 0.1 µM)
relative viability (HARA; first compound 0.08 µM): 0.106
relative viability (HARA; first compound 0.8 µM): 0.105
relative viability (HARA; first compound 2.53 µM): 0.119
relative viability (HARA; first compound 8 µM): 0.133
relative viability (LC-2-ad; first compound 0.08 µM): 0.469
relative viability (LC-2-ad; first compound 0.8 µM): 0.421
relative viability (LC-2-ad; first compound 2.53 µM): 0.52
relative viability (LC-2-ad; first compound 8 µM): 0.441
relative viability (NCI-H522; first compound 0.08 µM): 0.617
relative viability (NCI-H522; first compound 0.8 µM): 0.577
relative viability (NCI-H522; first compound 2.53 µM): 0.513
relative viability (NCI-H522; first compound 8 µM): 0.532
relative viability (LXF-289; first compound 0.08 µM): 0.192
relative viability (LXF-289; first compound 0.8 µM): 0.187
relative viability (LXF-289; first compound 2.53 µM): 0.169
relative viability (LXF-289; first compound 8 µM): 0.271
relative viability (PC-14; first compound 0.08 µM): 0.612
relative viability (PC-14; first compound 0.8 µM): 0.718
relative viability (PC-14; first compound 2.53 µM): 0.74
relative viability (PC-14; first compound 8 µM): 0.644
relative viability (HCC-366; first compound 0.08 µM): 0.108
relative viability (HCC-366; first compound 0.8 µM): 0.188
relative viability (HCC-366; first compound 2.53 µM): 0.177
relative viability (HCC-366; first compound 8 µM): 0.113
relative viability (NCI-H2126; first compound 0.08 µM): 0.809
relative viability (NCI-H2126; first compound 0.8 µM): 0.907
relative viability (NCI-H2126; first compound 2.53 µM): 0.919
relative viability (NCI-H2126; first compound 8 µM): 0.878
relative viability (HCC-15; first compound 0.08 µM): 0.412
relative viability (HCC-15; first compound 0.8 µM): 0.486
relative viability (HCC-15; first compound 2.53 µM): 0.55
relative viability (HCC-15; first compound 8 µM): 0.401
relative viability (NCI-H2009; first compound 0.08 µM): 0.753
relative viability (NCI-H2009; first compound 0.8 µM): 0.915
relative viability (NCI-H2009; first compound 2.53 µM): 0.798
relative viability (NCI-H2009; first compound 8 µM): 0.714
relative viability (COR-L23; first compound 0.08 µM): 0.191
relative viability (COR-L23; first compound 0.8 µM): 0.253
relative viability (COR-L23; first compound 2.53 µM): 0.233
relative viability (COR-L23; first compound 8 µM): 0.19
relative viability (HCC-44; first compound 0.08 µM): 1.03
relative viability (HCC-44; first compound 0.8 µM): 1.12
relative viability (HCC-44; first compound 2.53 µM): 0.814
relative viability (HCC-44; first compound 8 µM): 0.836
relative viability (HCC-827; first compound 0.08 µM): 0.428
relative viability (HCC-827; first compound 0.8 µM): 0.447
relative viability (HCC-827; first compound 2.53 µM): 0.419
relative viability (HCC-827; first compound 8 µM): 0.424
relative viability (LU99A; first compound 0.08 µM): 0.331
relative viability (LU99A; first compound 0.8 µM): 0.261
relative viability (LU99A; first compound 2.53 µM): 0.277
relative viability (LU99A; first compound 8 µM): 0.264
relative viability (NCI-H2087; first compound 0.08 µM): 0.28
relative viability (NCI-H2087; first compound 0.8 µM): 0.308
relative viability (NCI-H2087; first compound 2.53 µM): 0.222
relative viability (NCI-H2087; first compound 8 µM): 0.217
relative viability (BEN; first compound 0.08 µM): 0.518
relative viability (BEN; first compound 0.8 µM): 0.591
relative viability (BEN; first compound 2.53 µM): 0.542
relative viability (BEN; first compound 8 µM): 0.512
relative viability (CAL-12T; first compound 0.08 µM): 0.315
relative viability (CAL-12T; first compound 0.8 µM): 0.406
relative viability (CAL-12T; first compound 2.53 µM): 0.372
relative viability (CAL-12T; first compound 8 µM): 0.358
relative viability (NCI-H727; first compound 0.08 µM): 0.552
relative viability (NCI-H727; first compound 0.8 µM): 0.565
relative viability (NCI-H727; first compound 2.53 µM): 0.634
relative viability (NCI-H727; first compound 8 µM): 0.675
relative viability (HOP-62; first compound 0.08 µM): 0.313
relative viability (HOP-62; first compound 0.8 µM): 0.456
relative viability (HOP-62; first compound 2.53 µM): 0.377
relative viability (HOP-62; first compound 8 µM): 0.387
relative viability (SK-MES-1; first compound 0.08 µM): 0.959
relative viability (SK-MES-1; first compound 0.8 µM): 0.989
relative viability (SK-MES-1; first compound 2.53 µM): 0.998
relative viability (SK-MES-1; first compound 8 µM): 0.621
relative viability (PC-3 [JPC-3]; first compound 0.08 µM): 0.843
relative viability (PC-3 [JPC-3]; first compound 0.8 µM): 0.944
relative viability (PC-3 [JPC-3]; first compound 2.53 µM): 0.927
relative viability (PC-3 [JPC-3]; first compound 8 µM): 0.991
relative viability (NCI-H1993; first compound 0.08 µM): 0.523
relative viability (NCI-H1993; first compound 0.8 µM): 0.593
relative viability (NCI-H1993; first compound 2.53 µM): 0.594
relative viability (NCI-H1993; first compound 8 µM): 0.548
relative viability (COR-L 105; first compound 0.08 µM): 0.363
relative viability (COR-L 105; first compound 0.8 µM): 0.386
relative viability (COR-L 105; first compound 2.53 µM): 0.367
relative viability (COR-L 105; first compound 8 µM): 0.35
relative viability (NCI-H2170; first compound 0.08 µM): 0.798
relative viability (NCI-H2170; first compound 0.8 µM): 0.761
relative viability (NCI-H2170; first compound 2.53 µM): 0.818
relative viability (NCI-H2170; first compound 8 µM): 0.731
relative viability (LCLC-97TM1; first compound 0.08 µM): 0.186
relative viability (LCLC-97TM1; first compound 0.8 µM): 0.239
relative viability (LCLC-97TM1; first compound 2.53 µM): 0.265
relative viability (LCLC-97TM1; first compound 8 µM): 0.218
